# Measured values as given in US5366983A, “Use of quaternary ammonium compounds to remove salmonella contamination from meat products” (The Board of Trustees of The University of Arkansas, priority 1992, dated 1994).
# Where “and” joins values, the source holds several entries; their conditions need not be identical. Equal entries are not always repeated. Entries after “also recorded” stand apart in the source; their conditions may differ. Where two headings read alike, the source gives them in different places.
# Columns and labels:
# [1] = system: Salmonella typhimurium ATCC 14028; test: Effect on viability of Salmonella in suspension (Tables D-1 to D-3); format: cell-based
# Protocol: EC50 values for four of the compounds were calculated from the bactericidal activity of the compounds as a function of molar concentration by a nonlinear regression algorithm.
# In addition to the quaternary ammonium compounds, the antimicrobial activities of chelating agents Na2 -EDTA and EGTA were investigated. Na2 -EDTA was purchased from the Sigma Chemical Company (St. Louis, Mo.). Na2 -EDTA was dissolved in 0.04 M PPB prior to the assay and further dilutions were made in the same buffer.
# EGTA was purchased from the Aldrich Chemical Company (Milwaukee, Wis.). EGTA was dissolved in 0.04 M PPB according to the procedure described by Harafuji and Ogawa (J. Biochem. 87:1305-1312 (1980)). After heating EGTA for 15 minutes at 80° C., the pH was adjusted to 7.0 by addition of NaOH. EGTA was filter-sterilized using a 0.2 μm Acro disc filter (Gelman Sciences; Ann Arbor, Mich.) prior to the assay. Further dilutions were made in sterile PPB.
# [2] = system: Salmonella typhimurium ATCC 14028 attached to human buccal epithelial cells; format: cell-based
# Protocol: Studies were conducted on the attachment of Salmonella typhimurium to human buccal epithelial cells using the modified procedure of Boussard et al., International J. Pharmaceutics 53: 253-256 (1989). In this study, the activities of cationic and anionic surfactant compounds as well as certain chelating agents were compared on the detachment of S. typhimurium from epithelial cells.
# To this end, bacteria were grown on nutrient agar for 16 hours at 37° C. The cells were suspended in 0.008 M phosphate buffered saline (PBS) at pH 7.2 and washed two times at 4500 rpm for 10 minutes. The last suspension was diluted in PBS to obtain a cell concentration of 0.5 to 1×10^9 cells/ml. Human epithelial cells were obtained by swabbing the buccal surface of a healthy, nonsmoking donor. […] The number of living cells was estimated and the suspension diluted to 0.5 to 1×10^5 cells/ml.
# Next, the suspension of the human buccal cells was mixed with an equal volume of the bacterial suspension (3.0 ml), or PBS (0.8 ml). Contact was allowed for 1.5 hours at 35° C. under agitation. The mixtures were then centrifuged for 10 minutes at 4500 rpm. Each suspension, 1.0 ml, was transferred into Eppendorf vials and washed with PBS at 1500 rpm for 10 minutes. After the washing, the cells were treated with 1.0 ml PBS or 1.0 ml of the test chemical solution. Treatment was performed by suspending and vortexing on a low speed for 30 seconds followed by centrifugation at 1500 rpm for 10 minutes.
# After the treatment, the cells were washed once with PBS and then 20 μl of erythrosin B was added to each vial. The suspension was centrifuged at 1500 rpm for 10 minutes, and the cells were washed twice under the same conditions. The final pellet was suspended in 300 μl of PBS. This suspension was spread out onto microscope slides and dried overnight at room temperature. After counter staining with methylene blue, the slides were microscopically examined under oil immersion.
# [3] = system: Salmonella typhimurium ATCC 14028; test: Minimum growth inhibitory concentration, macrodilution; format: cell-based; conditions: Salmonella enterica, Mueler Hinton broth, macrodilution (NCCLS)
# Protocol: Minimum growth inhibitory concentrations (MICs) of quaternary ammonium compounds and Na2 -EDTA for Salmonella were determined using Mueler Hinton broth (BBL Microbiology system, Cockeysville, Md.) and by the macrodilution method established by the National Committee for Clinical Laboratory Standards (NCCLS). Escherichia coli ATCC 25922 and Staphylococcus aureus ATCC 29213 were included in each assay as reference strains.
# [4] = system: Salmonella typhimurium on chicken skin; test: Effect of surfactants on Salmonella attached to chicken skin, drumsticks (Tables F1-F4)
# Protocol: The following experiments utilizing chicken legs were conducted to determine the killing potential of a variety of surfactants against Salmonella on the skin and free in solutions. To this end, chicken legs obtained from the Department of Agriculture at the University of Arkansas, Fayetteville, were incubated for thirty minutes at room temperature with a 1:5000 dilution of Salmonella typhimurium. The chicken legs were removed five at a time and then rinsed twice in tap water to remove the unattached and excess Salmonella. The rinse water was sampled, diluted, and then plated onto XLD pour plates. […] The chicken legs were then removed and rinsed twice in tap water to remove the released Salmonella and excess chemicals. Rinses were then sampled, diluted, and then plated onto XLD pour plates.
# The chicken legs were then individually washed with 100 ml sterile double distilled water, and then shaken fifty times. Samples of the wash H2 O were diluted and plated onto XLD pour plates. The chicken legs were further swabbed after the washing step above. The swabs were then plated onto the XLD plates. A set of wash samples were enriched with TT Broth Base Hajna and then plated onto XLD plates.
# All of the samples were plated in 1 ml aliquots onto XLD pour plates. A positive control sample incubated in sterile double distilled water at 4° C. was run for each of the aforementioned conditions. Treatments occurred at both 4° C. and 25° C. The data is reported as the mean number of CFU/ml. The ratio in the table represents the number of chicken legs out of a sample of ten chicken legs producing the notated number of colonies, as indicated by the +, ++, +++, or ++++.
# [5] = system: Salmonella typhimurium ATCC 14028 attached to human buccal epithelial cells; test: microbe, parasite or virus in culture; format: cell-based; conditions: for adherence, mean value of attached bacteria: Table A-3
# Protocol: Additional studies on the detachment of Salmonella typhimurium from human buccal epithelial cells were conducted.
# S. typhimurium ATCC 14028 was grown in nutrient broth (BBL Microbiology system, Cockeysville, Md.) for 16 hours at 37° C. The cells were centrifuged and washed twice with 0.008 M phosphate buffered saline (PBS, at pH 7.2) at 4500 rpm for 10 minutes. The last suspension was diluted in PBS to obtain a cell concentration 0.5 to 1×10^9 cells/ml using spectrophotometric measurement. Human epithelial cells were obtained by swabbing the buccal surface of a healthy, nonsmoking donor. […] The number of living cells was estimated and the suspension was diluted to 0.5 to 1×10^5 cells/ml.
# The suspension of the human buccal cells was mixed with an equal volume of the bacterial suspension (3.0 ml), or PBS (0.8 ml) in 10 ml Erlenmeyer flasks. Contact was allowed for 1.5 hours at 35° C. under agitation. After incubation, 1.0 ml of each suspension was transferred into an Eppendorff vial, centrifuged at 3000 rpm for 10 minutes, and washed with PBS. The cells were treated with 1.0 ml PBS or 1.0 ml of the test chemical solution. Treatment was performed by suspending, gently vortexing, and centrifuging at 1500 rpm for 10 minutes. After the treatment, the cells were washed and placed on microscopic slides for examination.
# EC50 represents the inverse measurement of the potency of a compound. EC50 values were determined by a nonlinear regression of the detachment effect versus the cationic surfactant concentration data from Table A-3.
# [6] = system: Salmonella typhimurium on chicken skin; test: Prevention of attachment of Salmonella on excised chicken skin (Table F5); conditions: rinse water; 30 minutes at room temperature
# Protocol: To determine the ability of surfactants to inhibit attachment or produce detachment of Salmonella, the following experiment was conducted. A hole was bored into the bottom of a 150 ml specimen cup. Chicken skin was excised from a drum stick and then placed over the cap of the specimen cup, and then the cap was screwed on. S. typhimurium was diluted 1:5000 with PBS or a surfactant. The surfactants were diluted appropriately. The skin was then inoculated with the solution containing the S. typhimurium and the surfactant for 30 minutes at room temperature.
# Following incubation, the skin was washed. The rinse water was diluted appropriately in PBS and then plated onto XLD pour plates. The S. typhimurium was counted and reported as CFU/ml. The skin was swabbed so as to remove any remaining S. typhimurium using a nitroellulose lift and the CFU's/ml on the lift were also counted.
smiles,measurement,setting,value
"O=C(O)CN(CCN(CC(=O)O)CC(=O)O)CC(=O)O [Na2 -EDTA, disodium ethylenectiaminetetraacetate, reference compound]",bacterial viability,"[1]; 1,250 μg/ml, Table D-3",9.48 ± 0.63 × 10^8 CFU/ml
same,bacterial viability,"[1]; 2,500 μg/ml, Table D-3",9.68 ± 0.16 × 10^8 CFU/ml
same,bacterial viability,"[1]; 5,000 μg/ml, Table D-3",9.89 ± 0.37 × 10^8 CFU/ml
same,bactericidal effect against S. typhimurium (in words),[1]; viability testing in suspension,ineffective; also recorded: no bactericidal effect
same,"adherence, mean value of attached bacteria","[2]; 500 ug/ml, Table A-2",43 ± 21
same,"adherence, mean value of attached bacteria","[2]; 1250 ug/ml, Table A-2",22 ± 12
same,"adherence, mean value of attached bacteria","[2]; 2500 ug/ml, Table A-2",35 ± 18
same,"adherence, mean value of attached bacteria","[2]; 10,000 ug/ml, Table A-2",31 ± 14
same,effect on bacteria attached to the epithelial cells (in words),"[2]; chelating agents, Na2-EDTA at 1250 μg/ml",highly effective
same,MIC,[3],625 µg/mL
"CCCCCCCCCCCC[n+]1ccccc1 [DPC, dodecylpyridinium chloride]",bacterial viability,"[1]; 10 ug/ml, Table D-1",1.39 ± 0.34 × 10^9 CFU/ml
same,bacterial viability,"[1]; 100 ug/ml, Table D-1",9.8 ± 2.17 × 10^8 CFU/ml and 8.85 ± 0.3 × 10^8 CFU/ml
same,bacterial viability,"[1]; 200 ug/ml, Table D-1",< 10^5 CFU/ml
same,bacterial viability,"[1]; 400 ug/ml, Table D-1",0 CFU/ml
same,bacterial viability,"[1]; 1000 ug/ml, Table D-1",0 CFU/ml
same,"Enrichment, chicken legs out of ten","[4]; 0.1%, 25° C.",8/10
same,Rinse H2O,"[4]; 0.1%, 25° C.",0 CFU/ml
same,Surfactant Solution,"[4]; 0.1%, 25° C.",0 CFU/ml
same,"Swabs, chicken legs producing the notated number of colonies","[4]; 0.1%, 25° C.",0/10
same,"Wash H2O, chicken legs producing the notated number of colonies","[4]; 0.1%, 25° C.",7/10
same,"Wash H2O, colonies","[4]; 0.1%, 25° C.",++ (11-100)
same,"Enrichment, chicken legs out of ten","[4]; 1.0%, 25° C.",0/10
same,Rinse H2O,"[4]; 1.0%, 25° C.",0 CFU/ml
same,Surfactant Solution,"[4]; 1.0%, 25° C.",0 CFU/ml
same,"Swabs, chicken legs producing the notated number of colonies","[4]; 1.0%, 25° C.",0/10
same,"Wash H2O, colonies","[4]; 1.0%, 25° C.",0 CFU/ml
same,"Enrichment, chicken legs out of ten","[4]; .01%, 25° C.",10/10
same,Rinse H2O,"[4]; .01%, 25° C.",+ (1-10)
same,Surfactant Solution,"[4]; .01%, 25° C.",0 CFU/ml
same,"Swabs, chicken legs producing the notated number of colonies","[4]; .01%, 25° C.",6/10
same,"Swabs, colonies","[4]; .01%, 25° C.",+ (1-10)
same,"Wash H2O, chicken legs producing the notated number of colonies","[4]; .01%, 25° C.",10/10
same,"Wash H2O, colonies","[4]; .01%, 25° C.",++ (11-100)
same,"adherence, mean value of attached bacteria",[5]; 100 ug/ml,129 ± 87
same,"adherence, mean value of attached bacteria",[5]; 150 ug/ml,141 ± 66
same,"adherence, mean value of attached bacteria",[5]; 175 ug/ml,110 ± 73
same,"adherence, mean value of attached bacteria",[5]; 250 ug/ml,62 ± 50
same,"adherence, mean value of attached bacteria",[5]; 300 ug/ml,61 ± 34
same,"adherence, mean value of attached bacteria",[5]; 450 ug/ml,54 ± 23
same,EC50,"[5]; Salmonella enterica, Epithelial cell, read-out: EC50 (±SD), detachment",716 ± 63 µM
same,"adherence, mean value of attached bacteria","[2]; 10 ug/ml, Table A-1",70 ± 35
same,"adherence, mean value of attached bacteria","[2]; 25 ug/ml, Table A-1",55 ± 23
same,"adherence, mean value of attached bacteria","[2]; 50 ug/ml, Table A-1",46 ± 28
same,"adherence, mean value of attached bacteria","[2]; 75 ug/ml, Table A-1",34 ± 20
same,"adherence, mean value of attached bacteria","[2]; 100 ug/ml, Table A-1",34 ± 18
same,"adherence, mean value of attached bacteria","[2]; 500 ug/ml, Table A-1",14 ± 10
same,MIC,[3]; read-out: MIC,80 µg/mL
"CCCCCCCCCCCCOS(=O)(=O)[O-].[Na+] [SDS, sodium dodecylsulfate, reference compound]",CFU/ml on XLD agar,[6],4 × 10^2 CFU/ml
same,"Enrichment, chicken legs out of ten","[4]; 0.1%, 4° C.",10/10
same,Rinse H2O,"[4]; 0.1%, 4° C.",++ (11-100)
same,Surfactant Solution,"[4]; 0.1%, 4° C.",++ (11-100)
same,"Swabs, chicken legs producing the notated number of colonies","[4]; 0.1%, 4° C.",10/10
same,"Swabs, colonies","[4]; 0.1%, 4° C.",++ (11-100)
same,"Wash H2O, chicken legs producing the notated number of colonies","[4]; 0.1%, 4° C.",10/10
same,"Wash H2O, colonies","[4]; 0.1%, 4° C.",++ (11-100)
same,"Enrichment, chicken legs out of ten","[4]; 0.5%, 4° C.",10/10
same,Rinse H2O,"[4]; 0.5%, 4° C.",+ (1-10)
same,Surfactant Solution,"[4]; 0.5%, 4° C.",++ (11-100)
same,"Swabs, chicken legs producing the notated number of colonies","[4]; 0.5%, 4° C.",10/10
same,"Swabs, colonies","[4]; 0.5%, 4° C.",++ (11-100)
same,"Wash H2O, chicken legs producing the notated number of colonies","[4]; 0.5%, 4° C.",10/10
same,"Wash H2O, colonies","[4]; 0.5%, 4° C.",++ (11-100)
same,"Enrichment, chicken legs out of ten","[4]; 1.0%, 4° C.",10/10
same,Rinse H2O,"[4]; 1.0%, 4° C.",+ (1-10)
same,Surfactant Solution,"[4]; 1.0%, 4° C.",+ (1-10)
same,"Swabs, chicken legs producing the notated number of colonies","[4]; 1.0%, 4° C.",10/10
same,"Swabs, colonies","[4]; 1.0%, 4° C.",++ (11-100)
same,"Wash H2O, chicken legs producing the notated number of colonies","[4]; 1.0%, 4° C.",10/10
same,"Wash H2O, colonies","[4]; 1.0%, 4° C.",++ (11-100)
same,"adherence, mean value of attached bacteria","[2]; 25 ug/ml, Table A-1",43 ± 25
same,"adherence, mean value of attached bacteria","[2]; 50 ug/ml, Table A-1",26 ± 19
same,cytotoxicity to buccal epithelial cells,"[2]; 500 ug/ml, Table A-1",cytotoxic
